Assay results taken from patent US20240358692A1, “TREATMENT OF SCLERODERMA” (Aisa Pharma, Inc., priority 2023, published 2024).

Key:
[1] = cilnidipine given orally; cited from earlier work
participants with SSc-RP [2] = assay: SHAQ - Visual Analog Scale - Raynaud's; assay type: in vivo, human; design: SHAQ Visual Analogue Scale - Raynaud's, In-Clinic Visit (Day 12), Mean / SHAQ Visual Analogue Scale - Raynaud's, In-Clinic Visit (Day 12), Median / SHAQ Visual Analogue Scale - Raynaud's: In-Clinic Visit (Day 12), Median: scale not given here; details: for % change VAS Raynauds: SHAQ, mITT Part A
Description: The SHAQ includes a Raynaud's VAS, which will be reported at screening and each in-clinic visit. The absolute change in Raynaud-VAS, assessed by the participants response to the SHAQ question ‘In the past 7 days, how much have your Raynaud's interfered with your daily activities?’ at baseline and the end of each dosing period will be calculated similar to frequency data as before.
The standard, validated, patient reported outcome measures tool for SSc patients, the SHAQ, was collected at the time points specified in the study schedules (FIG. 2 and FIGS. 4A and 4B) to assess the participant's quality of life. The SHAQ included a Raynaud's VAS that will also be reported separately.

participants with SSc-RP [3] = assay: Summary of data: dose response / overall response (Table S); assay type: in vivo, human; details: 20 mg dose group
[4] = Any Cilnidipine (N = 17), Day 12, PP Population, Part A
[5] = Cilnidipine 20 mg (N = 4), Day 12, PP Population, Part A
[6] = Pooled Cilnidipine 10 mg and Cilnidipine 10 mg + Tadalafil 5 mg (N = 9), Day 12, PP Population, Part A
[7] = Pooled Cilnidipine 20 mg and Cilnidipine 20 mg + Tadalafil 5 mg (N = 7), Modified ITT Population - Part A
[8] = Pooled Cilnidipine (N = 8), Day 12, PP Population, Part A
[9] = cilnidipine 10 mg (combination: + tadalafil 5 mg)
[10] = cilnidipine 20 mg (combination: + tadalafil 5 mg)

COCCOC(=O)C1=C(C)NC(C)=C(C(=O)OC/C=C/c2ccccc2)C1c1cccc([N+](=O)[O-])c1 (centres unmarked) [Cilnidipine]
protein bound [1]: 98%
SHAQ Visual Analogue Scale - Raynaud's, Change from Baseline, Mean (SD) (participants with SSc-RP [2]; [4]): −0.696 (1.3935)
SHAQ Visual Analogue Scale - Raynaud's, Change from Baseline, Median (participants with SSc-RP [2]; [4]): −0.300
SHAQ Visual Analogue Scale - Raynaud's, In-Clinic Visit (Day 12), Mean (SD) (participants with SSc-RP [2]; [4]): 2.022 (1.8357)
SHAQ Visual Analogue Scale - Raynaud's, In-Clinic Visit (Day 12), Median (participants with SSc-RP [2]; [4]): 1.400
SHAQ Visual Analogue Scale - Raynaud's, Percent Change from Baseline, Mean (SD) (participants with SSc-RP [2]; [4]): −20.44 (55.098) %
SHAQ Visual Analogue Scale - Raynaud's, Percent Change from Baseline, Median (participants with SSc-RP [2]; [4]): −33.33%
SHAQ Visual Analogue Scale - Raynaud's, Change from Baseline, Median (participants with SSc-RP [2]; Cilnidipine 10 mg (N = 4), Day 12, PP Population, Part A): 0.350
SHAQ Visual Analogue Scale - Raynaud's, Change from Baseline, Mean (participants with SSc-RP [2]; [5]): −1.200
SHAQ Visual Analogue Scale - Raynaud's, In-Clinic Visit (Day 12), Median (participants with SSc-RP [2]; [5]): 1.250
% change VAS Raynauds (participants with SSc-RP [2]; Cilnidipine 20 mg (n = 3)): −49%
SHAQ Visual Analogue Scale - Raynaud's, Percent Change from Baseline, Median (participants with SSc-RP [2]; Cilnidipine 20 mg, Day 12 vs Baseline, PP Population Part A, sensitivity analysis): −38.67%
SHAQ Visual Analogue Scale - Raynaud's, Change from Baseline, Mean (participants with SSc-RP [2]; [6]): −0.414
SHAQ Visual Analogue Scale - Raynaud's, Change from Baseline, Median (participants with SSc-RP [2]; [6]): −0.100
SHAQ Visual Analogue Scale - Raynaud's, In-Clinic Visit (Day 12), Median (participants with SSc-RP [2]; [6]): 2.600
SHAQ Visual Analogue Scale - Raynaud's, Percent Change from Baseline, Mean (participants with SSc-RP [2]; [6]): −9.97%
SHAQ Visual Analogue Scale - Raynaud's, Percent Change from Baseline, Median (participants with SSc-RP [2]; [6]): −4.39%
SHAQ Visual Analogue Scale - Raynaud's, Change from Baseline, Median (participants with SSc-RP [2]; Pooled Cilnidipine 20 mg and Cilnidipine 20 mg + Tadalafil 5 mg (N = 7), Day 12, Modified ITT Population - Part A): −0.300
SHAQ Visual Analogue Scale - Raynaud's, In-Clinic Visit (Day 12), Mean (participants with SSc-RP [2]; [7]): 1.300
SHAQ Visual Analogue Scale - Raynaud's, In-Clinic Visit (Day 12), Median (participants with SSc-RP [2]; [7]): 0.600
SHAQ Visual Analogue Scale - Raynaud's, In-Clinic Visit (Day 12), Median (participants with SSc-RP [2]; Pooled Cilnidipine 20 mg and Cilnidipine 20 mg + Tadalafil 5 mg (N = 8), Day 12, PP Population, Part A): 0.850
SHAQ Visual Analogue Scale - Raynaud's, Change from Baseline, Mean (SD) (participants with SSc-RP [2]; [8]): −0.438 (1.2094)
SHAQ Visual Analogue Scale - Raynaud's, In-Clinic Visit (Day 12), Mean (participants with SSc-RP [2]; [8]): 1.900
SHAQ Visual Analogue Scale - Raynaud's, In-Clinic Visit (Day 12), Mean (SD) (participants with SSc-RP [2]; [8]): 1.900 (1.6861)
SHAQ Visual Analogue Scale - Raynaud's, Percent Change from Baseline, Mean (SD) (participants with SSc-RP [2]; [8]): −18.62 (75.571) %
% change VAS Raynauds (participants with SSc-RP [2]; Pooled Cilnidipine (n = 7)): −17%
SHAQ Visual Analogue Scale - Raynaud's: Change from Baseline, Median (participants with SSc-RP [2]; Sensitivity Analysis (diagnosis of SSc), Modified ITT, Part A, Day 12, Any Cilnidipine (N = 14)): −0.300
SHAQ Visual Analogue Scale - Raynaud's: Percent Change from Baseline, Mean (participants with SSc-RP [2]; Sensitivity Analysis (diagnosis of SSc), Modified ITT, Part A, Day 12, Pooled Cilnidipine (N = 6)): −18.64%
SHAQ Visual Analogue Scale - Raynaud's: In-Clinic Visit (Day 12), Median (participants with SSc-RP [2]; Sensitivity Analysis (diagnosis of SSc), Modified ITT, Part A, Day 12, arms Cilnidipine 10 mg, Tadalafil 5 mg, Cilnidipine 10 mg + Tadalafil 5 mg): 2.600
SHAQ Visual Analogue Scale - Raynaud's: In-Clinic Visit (Day 12), Median (participants with SSc-RP [2]; Sensitivity Analysis (diagnosis of SSc), Modified ITT, Part A, Day 12, arms Cilnidipine 20 mg, Cilnidipine 20 mg + Tadalafil 5 mg): 1.100
VAS Raynaud's Change from Baseline Max (participants with SSc-RP [2]; [9]): 1.50
VAS Raynaud's Change from Baseline Median (participants with SSc-RP [2]; [9]): 0.350
VAS Raynaud's Change from Baseline Min (participants with SSc-RP [2]; [9]): −0.90
VAS Raynaud's Change from Baseline Q1 (participants with SSc-RP [2]; [9]): −0.500
VAS Raynaud's Change from Baseline Q3 (participants with SSc-RP [2]; [9]): 1.150
VAS Raynaud's Day 12 Max (participants with SSc-RP [2]; [9]): 4.30
VAS Raynaud's Day 12 Median (participants with SSc-RP [2]; [9]): 1.700
VAS Raynaud's Day 12 Min (participants with SSc-RP [2]; [9]): 0.00
VAS Raynaud's Day 12 Q1 (participants with SSc-RP [2]; [9]): 0.400
VAS Raynaud's Day 12 Q3 (participants with SSc-RP [2]; [9]): 3.450
VAS Raynaud's Percent Change from Baseline Max (participants with SSc-RP [2]; [9]): 136.4%
VAS Raynaud's Percent Change from Baseline Mean (participants with SSc-RP [2]; [9]): 11.36%
VAS Raynaud's Percent Change from Baseline Median (participants with SSc-RP [2]; [9]): −2.27%
VAS Raynaud's Percent Change from Baseline Min (participants with SSc-RP [2]; [9]): −100.0%
VAS Raynaud's Percent Change from Baseline Q1 (participants with SSc-RP [2]; [9]): −100.00%
VAS Raynaud's Change from Baseline Max (participants with SSc-RP [2]; [10]): −0.30
VAS Raynaud's Change from Baseline Mean (participants with SSc-RP [2]; [10]): −1.267
VAS Raynaud's Change from Baseline Median (participants with SSc-RP [2]; [10]): −1.100
VAS Raynaud's Change from Baseline Min (participants with SSc-RP [2]; [10]): −2.40
VAS Raynaud's Change from Baseline Q1 (participants with SSc-RP [2]; [10]): −2.400
VAS Raynaud's Change from Baseline Q3 (participants with SSc-RP [2]; [10]): −0.300
VAS Raynaud's Day 12 Max (participants with SSc-RP [2]; [10]): 1.40
VAS Raynaud's Day 12 Median (participants with SSc-RP [2]; [10]): 1.100
VAS Raynaud's Day 12 Min (participants with SSc-RP [2]; [10]): 0.60
VAS Raynaud's Day 12 Q1 (participants with SSc-RP [2]; [10]): 0.600
VAS Raynaud's Day 12 Q3 (participants with SSc-RP [2]; [10]): 1.400
VAS Raynaud's Percent Change from Baseline Mean (participants with SSc-RP [2]; [10]): −48.63%
VAS Raynaud's Percent Change from Baseline Median (participants with SSc-RP [2]; [10]): −44.00%
VAS Raynaud's Percent Change from Baseline Min (participants with SSc-RP [2]; [10]): −68.6%
VAS Raynaud's Percent Change from Baseline Q1 (participants with SSc-RP [2]; [10]): −68.57%
VAS Raynaud's Percent Change from Baseline Q3 (participants with SSc-RP [2]; [10]): −33.33%
Efficacy seen: overall response (participants with SSc-RP [3]): shows best overall
